Laboratory results from patent publication US11603355B2, “Charged ion channel blockers and methods for use” (Nocion Therapeutics, Inc., priority 2019, dated 2023).
Where a name gives a salt, the structure may show the parent alone.

How the values were obtained:
[1] = target: T1, NaV1.7 (Homo sapiens, UniProt Q15858); experiment: Manual patch clamp, internal block of NaV1.7 current; assay type: cell-based; details: compound in internal solution, HEK293 cells; for inhibition at 3 µM / inhibition at 10 µM: read-out: Nav1.7 Intracellular Inhibition; for inhibition at 10 µM: % inhibition at 10 μM test concentration
T1 construct: expressed in transfected cells; host or cells: HEK293 (tetracycline-inducible)
Summary of the method: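 Whole-cell recordings at room temperature in tetracycline-induced HEK293 cells, compound in CsCl internal solution (pH 7.2), held at −100 mV with 10 ms steps to −20 mV. Four 30 s 5 Hz trains after 5 min baseline; fraction of peak inward current remaining computed as Itest/Ibaseline.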

[2] = target: T1, NaV1.7; experiment: Manual patch clamp, external block of NaV1.7 current; assay type: cell-based; details: % inhibition at 10 μM test concentration, compound in external solution, HEK293 cells; for inhibition at 10 µM: read-out: Nav1.7 Extracellular Inhibition
Procedure: Representative compounds of the invention were synthesized according to the described methods and tested for the ability to inhibit voltage-gated sodium channels.
NaV1.7 was expressed in HEK293 cells upon induction with tetracycline. Cells were cultured in DMEM containing 10% dialyzed Fetal Bovine Serum (VWR, Radnor, Pa.), 1% Glutamax (VWR, Radnor, Pa.), 1% Penicillin-Streptomycin (VWR, Radnor, Pa.), 100 mg/L Hygromycin (Thermo Fisher Scientific, Waltham, Mass. and 5 mg/L Blasticidin (Alfa Aesar, Haverhill, Mass.). Cells were grown and maintained at 37° C. in a humidified environment containing 10% CO2 in air. Cells were detached from the culture flask for passage and harvested using 0.05% Trypsin-EDTA (Thermo Fisher Scientific, Waltham, Mass.). To induce NaV1.7, cells were induced with tetracycline (0.1-1 μg/mL, IBI Scientific, Peosta, Iowa) the day before recording and plated onto 24-well plates. Cells were washed with DPBS (VWR, Radnor, Pa.), trypsinized and then triturated five times in 10 mL of growth media to break apart cell aggregates. For one 24-well plate, 2 mL of cell suspension was mixed with 23 mL of fresh growth media and 0.1-1 μg/mL tetracycline added. 1 ml of mixed media with cells was then added to each well of a 24-well plate, with a 12 mm coverslip already placed in the bottom of the well. Cells were then incubated in 37° C. and 10% CO2 overnight.
The intracellular solution contained the following (in mM) CsCl 135, NaCl 10, EGTA 10, HEPES 10, MgCl2 2, adjusted to pH 7.2 with CsOH. The external solution was a normal Ringer solution containing (in mM) NaCl 155, HEPES 10, glucose 10, KCl 3.5, CaCl2 1.5, MgCl2 1 adjusted to pH 7.4 with NaOH. CsCl is from Alfa Aesar, Haverhill, Mass. All other chemicals are from Sigma-Aldrich, St. Louis, Mo. In order to test the degree of internal block by test compounds the compounds were dissolved in internal solution at the indicated test concentration. […] In order to test the degree of external block by test compounds the compounds were dissolved in external solution at the indicated test concentration.
18-24 hours after cells were induced with tetracycline, coverslips were placed into a chamber filled with Normal Ringer solution at room temperature and the chamber placed on a microscope. Pipettes were pulled from borosilicate glass on a P97 puller (Sutter Instrument, Novato, Calif.) and polished with a MF-830 Microforge (Narishige International USA, Inc., Amityville, N.Y.) to have a resistance of 1.5-2.5 MΩ when filled with CsCl internal solution at room temperature. Healthy cells (those that are round and translucent with no visible blemishes) were chosen for seal formation. A seal was formed between the pipette and the cell, and a brief pulse of suction was used to “break in” and establish the whole-cell configuration. The membrane potential was held at −100 mV before the voltage protocol began. Only cells with series resistance between 1.5-5 MΩ were retained for analysis. The voltage protocol was as follows: Cells were held at −100 mV for 12 ms followed by a hyperpolarizing step to −105 mV for 12 ms to monitor the leak. Cells were then stepped back to −100 mV for 40 ms. Cells were then depolarized to −20 mV for 10 ms and then returned to −100 mV for 26 ms.
Once the recording was started, the voltage protocol was run at 30 second intervals for 5 minutes to get a stable baseline. This is followed by 5 Hz stimulation of the same voltage protocol run until the end of experiment. […] The test compound is added for 5 minutes before washing out with normal Ringer's solution. Currents were recorded using PatchMaster software with Heka EPC10 (HEKA Electronics, Lambrecht, Germany). Only cells with inward current amplitudes at −20 mV between 400 pA and 4 nA were accepted. In addition, cells having leak currents greater than 10% of their current amplitudes were discarded. […]

[3] = % inhibition at 3 μM test concentration

T1 sequence (Q15858 whole entry): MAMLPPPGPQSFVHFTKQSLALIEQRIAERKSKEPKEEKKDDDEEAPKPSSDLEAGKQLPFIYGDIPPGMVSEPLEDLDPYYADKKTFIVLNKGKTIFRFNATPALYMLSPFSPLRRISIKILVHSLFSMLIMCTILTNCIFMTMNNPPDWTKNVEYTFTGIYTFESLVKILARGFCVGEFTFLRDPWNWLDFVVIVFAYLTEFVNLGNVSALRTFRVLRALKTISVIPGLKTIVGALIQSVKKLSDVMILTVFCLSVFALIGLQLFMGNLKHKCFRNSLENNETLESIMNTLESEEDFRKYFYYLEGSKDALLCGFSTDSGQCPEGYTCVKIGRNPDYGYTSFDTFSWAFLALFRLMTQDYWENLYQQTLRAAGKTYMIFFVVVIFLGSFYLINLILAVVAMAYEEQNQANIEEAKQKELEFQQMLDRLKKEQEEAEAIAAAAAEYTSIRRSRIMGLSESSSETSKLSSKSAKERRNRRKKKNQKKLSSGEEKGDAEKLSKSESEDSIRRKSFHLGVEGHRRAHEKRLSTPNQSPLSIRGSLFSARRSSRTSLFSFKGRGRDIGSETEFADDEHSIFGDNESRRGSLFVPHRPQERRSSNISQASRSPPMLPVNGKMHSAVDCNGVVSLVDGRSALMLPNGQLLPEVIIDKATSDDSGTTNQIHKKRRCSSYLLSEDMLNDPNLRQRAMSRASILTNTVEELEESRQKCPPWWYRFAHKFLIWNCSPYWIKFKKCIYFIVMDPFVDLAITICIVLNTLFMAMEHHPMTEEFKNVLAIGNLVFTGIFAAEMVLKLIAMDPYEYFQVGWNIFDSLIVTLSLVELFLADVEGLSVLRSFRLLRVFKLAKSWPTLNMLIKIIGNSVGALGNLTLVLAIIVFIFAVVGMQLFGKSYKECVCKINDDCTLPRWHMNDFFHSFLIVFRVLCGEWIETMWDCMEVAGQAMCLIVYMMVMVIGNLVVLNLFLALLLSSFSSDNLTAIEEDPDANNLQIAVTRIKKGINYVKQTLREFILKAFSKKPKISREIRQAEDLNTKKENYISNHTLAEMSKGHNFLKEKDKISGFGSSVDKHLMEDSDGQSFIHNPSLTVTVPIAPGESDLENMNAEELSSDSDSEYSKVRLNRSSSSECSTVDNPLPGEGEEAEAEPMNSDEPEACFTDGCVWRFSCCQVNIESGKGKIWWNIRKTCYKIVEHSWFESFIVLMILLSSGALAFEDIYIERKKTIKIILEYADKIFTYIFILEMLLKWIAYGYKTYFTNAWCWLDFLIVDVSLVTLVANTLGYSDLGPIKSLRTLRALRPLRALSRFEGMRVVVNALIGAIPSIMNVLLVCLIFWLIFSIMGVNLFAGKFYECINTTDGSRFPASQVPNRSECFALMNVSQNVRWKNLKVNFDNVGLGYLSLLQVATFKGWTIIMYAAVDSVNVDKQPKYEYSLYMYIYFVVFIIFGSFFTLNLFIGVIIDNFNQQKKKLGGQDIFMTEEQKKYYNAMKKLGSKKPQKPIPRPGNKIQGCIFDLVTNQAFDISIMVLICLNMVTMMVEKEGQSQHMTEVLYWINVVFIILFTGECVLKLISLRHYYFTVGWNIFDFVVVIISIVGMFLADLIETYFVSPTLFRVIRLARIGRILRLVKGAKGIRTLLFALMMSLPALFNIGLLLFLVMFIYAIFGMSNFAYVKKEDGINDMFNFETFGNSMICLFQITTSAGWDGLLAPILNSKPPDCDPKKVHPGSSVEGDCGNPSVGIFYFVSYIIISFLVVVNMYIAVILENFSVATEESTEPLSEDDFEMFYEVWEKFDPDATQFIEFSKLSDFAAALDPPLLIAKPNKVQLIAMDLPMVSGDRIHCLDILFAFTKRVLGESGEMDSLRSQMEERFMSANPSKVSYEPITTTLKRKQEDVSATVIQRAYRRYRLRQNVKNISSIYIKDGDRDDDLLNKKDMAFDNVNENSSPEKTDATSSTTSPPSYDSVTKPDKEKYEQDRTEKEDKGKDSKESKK

Row | Compound | inhibition at 3 µM [1, 3] | also measured
1 | Cc1cccc(C(C)C)c1NC(=O)C[N+]1(Cc2ccccc2)CCCCCC1.[Br-] [Compound 74A] | 70 to 90% | 
2 | Cc1cccc(-c2ccccc2)c1NC(=O)C[N+]1(Cc2ccccc2)CCCCCC1.[Br-] [Compound 76A] | > 90% | inhibition at 10 µM [2]: 40 to 70%
3 | Cc1cccc(C)c1NC(=O)C[N+]1(Cc2ccccc2)CCCC(C(=O)OC(C)C)C1 (mixture of isomers) [Compound 46A, 1-benzyl-1-(2-((2,6-dimethylphenyl)amino)-2-oxoethyl)-3-(isopropoxycarbonyl) piperidin-1-ium trifluoroacetate salt] | > 90% | inhibition at 10 µM [2]: 40 to 70%
4 | CCNC(=O)C1CCC[N+](CC(=O)Nc2c(C)cccc2C)(Cc2ccccc2)C1.[Br-] (stereo not shown) [Compound 54A, 1-benzyl-1-(2-((2,6-dimethylphenyl)amino)-2-oxoethyl)-3-(ethylcarbamoyl) piperidin-1-ium bromide] | > 90% | 
5 | COC(=O)c1ccc(C[N+]2(CC(=O)Nc3c(C)cccc3C)CCCCC2)cc1.[Br-] [Compound 36A, 1-(2-((2,6-dimethylphenyl)amino)-2-oxoethyl)-1-(4-(methoxycarbonyl)benzyl) piperidin-1-ium bromide] | 70 to 90% | 
6 | CCC(=O)Oc1cccc(C)c1NC(=O)C[N+]1(Cc2ccccc2)CCCCCC1.[Br-] [Compound 80A, 1-benzyl-1-(2-((2-methyl-6-(propionyloxy)phenyl)amino)-2-oxoethyl) azepan-1-ium bromide] | > 90% | inhibition at 10 µM [2]: < 40%
7 | COc1cccc(C)c1NC(=O)C[N+]1(Cc2ccccc2)CCCCCC1 [Compound 71A] | 70 to 90% | 
8 | COC(=O)c1ccccc1C[N+]1(CC(=O)Nc2c(C)cccc2C)CCCCC1.[Br-] [Compound 37A, 1-(2-((2,6-dimethylphenyl)amino)-2-oxoethyl)-1-(2-(methoxycarbonyl)benzyl) piperidin-1-ium bromide] | 70 to 90% | inhibition at 10 µM [1]: 70 to 95%
9 | Cc1cccc(C)c1NC(=O)C[N+]1(Cc2ccccc2)CCCC(C(=O)N2CCCCC2)C1 (stereo not shown) [Compound 63A] | > 90% | 
10 | CCCOC(=O)N1CCC[N+](CC(=O)Nc2c(C)cccc2C)(Cc2ccccc2)CC1.[Br-] (stereo not shown) [Compound 68A, 1-benzyl-1-(2-((2,6-dimethylphenyl)amino)-2-oxoethyl)-4-(propoxycarbonyl)-1,4-diazepan-1-ium bromide] | > 90% | 
11 | Cc1cccc(F)c1NC(=O)C[N+]1(Cc2ccccc2)CCCCCC1.[Br-] [Compound 69A, 1-benzyl-1-(2-((2-fluoro-6-methylphenyl)amino)-2-oxoethyl)azepan-1-ium bromide] | > 90% | inhibition at 10 µM [2]: < 40%
12 | 1-benzyl-1-(2-((2-(dimethylcarbamoyl)-6-methylphenyl) amino)-2-oxoethyl) azepan-1-ium bromide [Compound 81A] |  | Nav1.7 Intracellular Inhibition [1, 3]: +++ (“+++” 90-70%); Nav1.7 Extracellular Inhibition [2]: + (“+” (<40%))
13 | Cc1cccc(C)c1NC(=O)C[N+]1(Cc2ccccc2)CCCC(C(=O)N(C)C)C1.[Br-] (stereo not shown) [Compound 65A] | > 90% | 
14 | Cc1cccc(C)c1N1CCCC([N+]2(Cc3ccccc3)CCCC2)C1=O.[Br-] (stereo not shown) [Compound 91A, 1-benzyl-1-(1-(2,6-dimethylphenyl)-2-oxopiperidin-3-yl) pyrrolidin-1-ium bromide] | 40 to 70% | 
15 | CNC(=O)C1CCC[N+](CC(=O)Nc2c(C)cccc2C)(Cc2ccccc2)C1 (stereo not shown) [Compound 55A] | 70 to 90% | 
16 | [2H]c1c([2H])c([2H])c(C[N+]2(CC(=O)Nc3c(C)cccc3C)CCCCCC2)c([2H])c1[2H].[Cl-] [Compound 33A, 1-(2-((2,6-dimethylphenyl)amino)-2-oxoethyl)-1-((phenyl-d5)methyl) azepan-1-ium chloride] | > 90% | inhibition at 10 µM [2]: 40 to 70%

Row | Compound | inhibition at 3 µM [1, 3] | also measured
17 | CCOc1cccc(C)c1NC(=O)C[N+]1(Cc2ccccc2)CCCCCC1.[Br-] [Compound 77A] | 70 to 90% | 
18 | Cc1cccc(C)c1NC(=O)C[N+]1(Cc2ccccc2)CCCC(F)(F)C1.[Br-] (stereo not shown) [Compound 32A, 1-benzyl-1-(2-((2,6-dimethylphenyl)amino)-2-oxoethyl)-3,3-difluoropiperidin-1-ium bromide] | > 90% | 
19 | Cc1cccc(C#N)c1NC(=O)C[N+]1(Cc2ccccc2)CCCCCC1.[Br-] [Compound 72A] | > 90% | 
20 | CCCCNc1ccc(NC(=O)C[N+]2(Cc3ccccc3)CCCCCC2)cc1.O=C[O-] [Compound 41A, 1-benzyl-1-(2-((4-(butylamino)phenyl)amino)-2-oxoethyl) azepan-1-ium formate] |  | inhibition at 10 µM [1]: 70 to 95%
21 | CCC(=O)OC1CCC[N+](CC(=O)Nc2c(C)cccc2C)(Cc2ccccc2)C1.[Br-] (stereo not shown) [Compound 52A, 1-benzyl-1-(2-((2,6-dimethylphenyl)amino)-2-oxoethyl)-3-(propionyloxy) piperidin-1-ium bromide] | > 90% | 
22 | Cc1cccc(C)c1N(C)C(=O)C[N+]1(Cc2ccccc2)CCCCCC1 [Compound 38A, 1-benzyl-1-(2-((2,6-dimethylphenyl) (methyl)amino)-2-oxoethyl) azepan-1-ium formate] | 70 to 90% | inhibition at 10 µM [2]: < 40%
23 | CCCNC(=O)C1CCC[N+](CC(=O)Nc2c(C)cccc2C)(Cc2ccccc2)C1 (stereo not shown) [Compound 57A] | 70 to 90% | 
24 | Cc1cccc(C)c1NC(=O)C[N+]1(Cc2ccccc2)CCCC(C(=O)NC(C)C)C1 (stereo not shown) [Compound 56A] | 40 to 70% | 
25 | Cc1cccc(C)c1NC(=O)C[N+]1(Cc2ccccc2)CCCC(C(N)=O)C1.[Br-] (mixture of isomers) [Compound 53A, 1-benzyl-3-carbamoyl-1-(2-((2,6-dimethylphenyl)amino)-2-oxoethyl) piperidin-1-ium bromide] | 70 to 90% | inhibition at 10 µM [2]: < 40%
26 | Cc1cccc(C)c1C(=O)OCC[N+]1(Cc2ccccc2)CCCCCC1.[Br-] [Compound 82A, 1-benzyl-1-(2-((2,6-dimethylbenzoyl)oxy)ethyl) azepan-1-ium bromide] | 70 to 90% | 
27 | CCOC(=O)C1CCC[N+](CC(=O)Nc2c(C)cccc2C)(Cc2ccccc2)C1.[Br-] (stereo not shown) [Compound 45A, 1-benzyl-1-(2-((2,6-dimethylphenyl)amino)-2-oxoethyl)-3-(ethoxycarbonyl) piperidin-1-ium bromide] | 70 to 90% | 
28 | CCN(CC)C(=O)C1CCC[N+](CC(=O)Nc2c(C)cccc2C)(Cc2ccccc2)C1 (stereo not shown) [Compound 66A] | 70 to 90% | 
29 | CCCc1cccc(C)c1NC(=O)C[N+]1(Cc2ccccc2)CCCCCC1.[Br-] [Compound 75A] | > 90% | 
30 | Cc1cccc(C)c1N1CCC([N+]2(Cc3ccccc3)CCCCC2)C1=O.[Br-] (stereo not shown) [Compound 89A, 1-benzyl-1-(1-(2,6-dimethylphenyl)-2-oxopyrrolidin-3-yl)piperidin-1-ium bromide] | 70 to 90% | 
31 | Cc1cccc(C)c1NC(=O)C[N+]1(Cc2ccccc2)CCCC(C(=O)N2CCCC2)C1 (stereo not shown) [Compound 62A] | > 90% | 
